Data on 8 compounds can be found in patent US12415811B2, “1,2,3',5'-tetrahydro-2'h-spiro[indole-3,1'-pyrrolo[3,4-C]pyrrole]-2,3'-dione compounds as therapeutic agents activating TP53” (ADAMED PHARMA, S.A., priority 2018, dated 2025).

Structures are written as SMILES. Like-named read-outs stand apart in the source and are kept apart here.

For one data set, the system named is SJSA-1 xenograft. The experiment in a line: In vivo efficacy in the SJSA-1 xenograft model in mice. Conditions: for inhibition in vivo at 12.5 mg/kg: Mus musculus, po, 12.5 mg/kg p.o., q1d, SJSA-1 xenograft in Crl:CD-1-Foxn1nu mice, mean. As to the method:
The experiment was conducted on female mice from the Crl:CD-1-Foxn1nu strain. Mice were inoculated subcutaneously in the right flank with cancer cell line SJSA-1 in the amount of 3×10^6 cells suspended in 100 μl HBSS: Matrigel matrix in a 3:1 ratio per mouse. On the 17th day after inoculation mice were divided into groups, so that in each group the mean tumor volume was similar and averaged around 200 mm^3. Experiment groups were selected, each consisting of 8 mice: Control NaCl 0.9% and compounds. Compounds 1-11 were dissolved in 56.60% PEG 400, 9.43% Cremophor RH40, 9.43% ETOH, 18.87% Labrafil M1944CS, 5.67% DMSO. For Compound 107 from WO2015/189799, group of 7 mice was used, and it was dissolved in 15% PEG400, 10% Cremophor EL, 75% H2O.
[…] During the course of experiment mice were weighed before each administration, —twice/thrice a week. Animal welfare was monitored daily. No significant difference in body weight or welfare was observed between experiment groups during and at the end of study.
Change in tumor volume was monitored twice/thrice a week starting from the first day of administration. Tumor volume was calculated based on its length and width measured with an electronic calipers: V[mm^3]=d^2×D/2
The tumor volume in the groups was measured up to 101 days after inoculation (72 days after last administration). Results of the experiment were expressed as mean values of tumor growth inhibition (TGI) ±SEM (Table 4). Tumor growth inhibition was calculated using the following formula TGI [%]=[100−[…]]
where C— mean tumor size in control group, T—mean tumor size in treated group. All calculations and graphs were performed using GraphPad Prism 5 software.

Data set [1] can be described thus: In vitro intrinsic clearance in murine microsomes. In kind it is in vitro ADME. Conditions: mouse, pH 7.4; murine microsomes 0.5 mg/ml, 1 μM compound, 37° C., up to 1 hour; read-out: murine MS Clint. As to the method: (§1) Metabolic stability of the compounds of the invention has been assessed by measurement of the in vitro intrinsic clearance in murine and human microsomes.
(§2) 10 mM stock solutions of markers and test compounds were prepared in DMSO. These were diluted 100-fold in 91:9 MeCN:DMSO to obtain a 100 μM assay stock. 10 mM NADPH was made up in 0.1M phosphate buffer (pH7.4). Microsomes were thawed in a waterbath at 37° C., and diluted to give a final assay concentration of 0.5 mg/ml.
(§3) 100 μM assay stocks were added to give a final concentration of 1 μM to incubation tubes containing buffer and NADPH (final assay concentration is 1 mM). Incubation tubes and microsomes were pre-warmed at 37° C. for 3 minutes. The microsomes were then added to the incubation tubes which were kept at 37° C. and shaken using the orbital shaker for the duration of the assay. Samples were taken at 6 pre-determined time points up to 1 hour and transferred to the prepared quench tubes containing an appropriate solvent with internal standard.
(§4) Quenched samples are mixed thoroughly and protein precipitated at −20° C. for a minimum of 12 hours. Samples were then centrifuged at 4° C. Supernatants were transferred to a fresh 96 well plate, compatible with the auto-sampler. The plate was sealed with a pre-slit silicone mat and analyzed by LC-MS/MS.

Data set [2] is described as follows: In vitro intrinsic clearance in human microsomes. Conditions: pH 7.4; human microsomes 0.5 mg/ml, 1 μM compound, 37° C., up to 1 hour; read-out: human MS Clint. The data set is classed as in vitro ADME. Here is the method:
as §1, §2, §3, §4

For data set [3], the system named is SJSA-1 osteosarcoma cell line. The data set is described as follows: Cell viability MTT assay. The data set is classed as cell-based. Conditions: Homo sapiens, 72 h incubation, average of 2-5 experiments. Here is the method:
The effect of the invented p53-Mdm2 inhibitors on cell viability has been assessed using MTT assay. It is a colorimetric assay that measures conversion of tetrazolium ring of the soluble yellow dye (MTT) into insoluble purple formazan. This process is catalyzed solely in mitochondrial dehydrogenases of living cells.
Cells were seeded on 96-well plates and then treated with successive dilutions of tested compounds. After 72 h incubation, MTT was added to the final concentration 0.5 mg/ml. The cells were further incubated for the next 4 h. Then the solution was drained and the remaining formazan crystals were dissolved in 100 μl DMSO. […] All the MTT experiments were independently repeated 2-5 times. Dose-dependent binding curves and IC50 values were calculated using GraphPad Prism 5. The presented IC50 values represent the average value from all the performed experiments (Table 3).
On the technique in general: Tetrazolium assays rely on reduction of a dye to a coloured formazan, in cell work by metabolically active cells.

Another data set addresses p53-Mdm2 interaction (Homo sapiens (Human), UniProt Q00987). The experiment in a line: Fluorescence polarization (FP) binding assay, inhibition of p53-Mdm2 interaction. Conditions: 75 nM Mdm2 (amino acids 1-111), 10 nM FAM-labelled p53 peptide; IC50 transformed to Ki using Kenakin equation. As to the method:
The inhibition of p53-Mdm2 interaction was measured using a fluorescence polarization (FP) binding assay. FP measures the rotational movement of molecules in a homogenous suspension. For this assay, N-terminal domain of Mdm2 protein (amino acids 1-111) is combined with a fluorescein-labeled (FAM) peptide derived from p53 trans-activation domain (Sequence: 5-FAM-TSFAEYWNLLSP). Upon excitation of the fluorescent ligand with linearly polarized light the peptide emits perpendicularly polarized light. If the peptide is bound by Mdm2, rotation will slow down and the perpendicular component will proportionally decrease. In opposition disruption of the peptide-Mdm2 complex due to binding of an inhibitor to the p53 binding site of Mdm2 results in releasing of peptide and decreasing of emitted light polarization.
Fluorescence polarization experiments were read on Biotek Cytation 5 reader with the 470 nm excitation and 520 nm emission filters for fluorescein. The fluorescence polarization was measured in black 96-well plates (Corning, CLS3991) in room temperature. Purity of Mdm2 was controlled at >95%. Reaction buffer was optimized by adding 5 mM DTT and 0.1% zwitterionic detergent CHAPS to reduce effect of nonspecific interactions.
The test was performed by combining successive dilution of compounds diluted in dimethyl sulfoxide (DMSO, 5% final concentration) with 75 nM Mdm2 in reaction buffer (PBS, 0.1% CHAPS, 5 mM DTT (dithiothreitol)). After 15 minutes of incubation in room temperature 10 nM FAM-labelled peptide was added. Final reading was performed after 90 minutes of incubation. Dose-dependent binding curves and IC50 values were calculated using GraphPad Prism5 and next transformed to Ki values using Kenakin equation (Table 2).
In general terms: Polarisation of emitted light reports the rotation of a fluorescent probe.

The mark [4] stands for this setting: after 7 doses, read-out: TGI P.O. 12.5 mg/kg (7 doses) [%].
Where [5] appears, read: after 12 doses, read-out: TGI P.O. 12.5 mg/kg (12 doses) [%].

p53-Mdm2 interaction, sequence (Q00987 1-111): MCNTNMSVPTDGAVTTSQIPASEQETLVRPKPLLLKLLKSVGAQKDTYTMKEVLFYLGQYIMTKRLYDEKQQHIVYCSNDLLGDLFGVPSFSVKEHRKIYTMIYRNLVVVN

The term IC50 denotes the concentration that inhibits the measured activity by half. Read a high IC50 as lower potency. As usually defined, the Ki is the dissociation constant of the complex between target and ligand, obtained from inhibition or displacement. Higher therefore signals lower affinity. As to `COc1ncc(-n2cc3c(c2C(C)C)[C@@]2(C(=O)Nc4cc(Cl)ccc42)N(c2cccc(Cl)c2)C3=O)c(OC)n1` [Compound 1, (3S)-6-chloro-2′-(3-chlorophenyl)-5′-(2,4-dimethoxypyrimidin-5-yl)-6′-(propan-2-yl)-1,2,3′,5′-tetrahydro-2′H-spiro[indole-3,1′-pyrrolo[3,4-c]pyrrole]-2,3′-dione], the results for the inhibition in vivo at 12.5 mg/kg with SJSA-1 xenograft (setting [4]) and in the data set with SJSA-1 xenograft (setting [5]) were 95% and 99.5%, respectively. Moreover, the microsomal CLint at 1 μM was 8.8 µL/min/mg in data set [1] and less than 3 µL/min/mg in data set [2]. Further, it took 0.18 µM to reach half-maximal inhibition in data set [3] (IC50). On p53-Mdm2 interaction, this compound gave a Ki of 1.8 nM.

Regarding `COc1ncc(-n2cc3c(c2C(C)C)[C@@]2(C(=O)Nc4cc(Cl)ccc42)N(c2cc(Cl)ccc2F)C3=O)c(OC)n1` [Compound 2, (3S)-6-chloro-2′-(5-chloro-2-fluorophenyl)-5′-(2,4-dimethoxypyrimidin-5-yl)-6′-(propan-2-yl)-1,2,3′,5′-tetrahydro-2′H-spiro[indole-3,1′-pyrrolo[3,4-c]pyrrole]-2,3′-dione], the inhibition in vivo at 12.5 mg/kg in the data set on SJSA-1 xenograft (setting [4]) is 94.4%; with SJSA-1 xenograft (setting [5]), 98.9%. The results for the microsomal CLint at 1 μM in data set [1] and in data set [2] were less than 4 µL/min/mg and less than 3 µL/min/mg, respectively. This compound yielded a 50% inhibitory concentration (IC50) in data set [3] of 0.16 µM. On p53-Mdm2 interaction, this compound displayed a Ki of 1.7 nM.

With `COc1nc(OC)c(-n2cc3c(c2C(C)C)[C@@]2(C(=O)Nc4cc(Cl)ccc42)N(c2cc(Cl)ccc2C)C3=O)c(OC)n1` [Compound 3, (3S)-6-chloro-2′-(5-chloro-2-methylphenyl)-6′-(propan-2-yl)-5′-(trimethoxypyrimidin-5-yl)-1,2,3′,5′-tetrahydro-2′H-spiro[indole-3,1′-pyrrolo[3,4-c]pyrrole]-2,3′-dione], the figures for the inhibition in vivo at 12.5 mg/kg in the data set on SJSA-1 xenograft (setting [4]) and with SJSA-1 xenograft (setting [5]) were 94.2% and 99.6%, respectively. Moreover, the microsomal CLint at 1 μM in data set [1] and in data set [2] was less than 3 µL/min/mg each time. The compound further came in with an IC50 in data set [3] of 0.07 µM. For the same compound, the Ki at p53-Mdm2 interaction amounted to 2.4 nM.

Turning to `COc1ncc(-n2cc3c(c2C(C)C)[C@@]2(C(=O)Nc4cc(Cl)ccc42)N(c2ccc(F)c(Cl)c2)C3=O)c(OC)n1` [Compound 4, (3S)-6-chloro-2′-(3-chloro-4-fluorophenyl)-5′-(2,4-dimethoxypyrimidin-5-yl)-6′-(propan-2-yl)-1,2,3′,5′-tetrahydro-2′H-spiro[indole-3,1′-pyrrolo[3,4-c]pyrrole]-2,3′-dione], the inhibition in vivo at 12.5 mg/kg with SJSA-1 xenograft (setting [4]) came to 94.9%; with SJSA-1 xenograft (setting [5]), 99.5%. The microsomal CLint at 1 μM in data set [1] and in data set [2] was less than 3 µL/min/mg each time. In data set [3], this compound yielded a half-inhibitory concentration (IC50) of 0.32 µM. The compound also returned a Ki on p53-Mdm2 interaction of 1.7 nM.

Turning to `COc1nc(OC)c(-n2cc3c(c2C(C)C)[C@@]2(C(=O)Nc4cc(Cl)ccc42)N(c2cc(Cl)ccc2F)C3=O)c(OC)n1` [Compound 5, (3S)-6-chloro-2′-(5-chloro-2-fluorophenyl)-6′-(propan-2-yl)-5′-(trimethoxypyrimidin-5-yl)-1,2,3′,5′-tetrahydro-2′H-spiro[indole-3,1′-pyrrolo[3,4-c]pyrrole]-2,3′-dione], the values for the inhibition in vivo at 12.5 mg/kg in the data set on SJSA-1 xenograft (setting [4]) and in the data set on SJSA-1 xenograft (setting [5]) were 85.8% and 96%, respectively. Also, the microsomal CLint at 1 μM in data set [1] and in data set [2] was less than 3 µL/min/mg throughout. Also, in data set [3], half-maximal inhibition (IC50) was put at 0.18 µM. On p53-Mdm2 interaction, this compound had a Ki of 2.2 nM.

For `COc1cc(N(C)C)ncc1-n1cc2c(c1C(C)C)[C@@]1(C(=O)Nc3cc(Cl)ccc31)N(c1cc(Cl)ccc1F)C2=O` [Compound 6, (3S)-6-chloro-2′-(5-chloro-2-fluorophenyl)-5′-[6-(dimethylamino)-4-methoxypyridin-3-yl]-6′-(propan-2-yl)-1,2,3′,5′-tetrahydro-2′H-spiro[indole-3,1′-pyrrolo[3,4-c]pyrrole]-2,3′-dione], the results for the inhibition in vivo at 12.5 mg/kg with SJSA-1 xenograft (setting [4]) and with SJSA-1 xenograft (setting [5]) were 92% and 99.1%, respectively. In addition, the microsomal CLint at 1 μM in data set [1] is 33.6 µL/min/mg; in data set [2] it was 19.8 µL/min/mg. In addition, the IC50 in data set [3] worked out at 0.03 µM. Further, the Ki at p53-Mdm2 interaction was found to be 1.7 nM.

Turning to `COc1cc(OC)c(-n2cc3c(c2C(C)C)[C@@]2(C(=O)Nc4cc(Cl)ccc42)N(c2cc(Cl)ccc2F)C3=O)cn1` [Compound 9, (3S)-6-chloro-2′-(5-chloro-2-fluorophenyl)-5′-(4,6-dimethoxypyridin-3-yl)-6′-(propan-2-yl)-1,2,3′,5′-tetrahydro-2′H-spiro[indole-3,1′-pyrrolo[3,4-c]pyrrole]-2,3′-dione], the inhibition in vivo at 12.5 mg/kg with SJSA-1 xenograft (setting [4]) was 89.5%; in the data set with SJSA-1 xenograft (setting [5]) it was 97.7%. In data set [3], this compound yielded an IC50 of 0.12 µM. This compound also had a Ki at p53-Mdm2 interaction of 2 nM.

On to `CCC(C)c1c2c(cn1-c1cnc(OC)nc1OC)C(=O)N(c1cc(Cl)ccc1F)[C@]21C(=O)Nc2cc(Cl)ccc21` (stereo partly shown) [Compound 11, (3)-6′-(butan-2-yl)-6-chloro-2′-(5-chloro-2-fluorophenyl)-5′-(2,4-dimethoxypyrimidin-5-yl)-1,2,3′,5′-tetrahydro-2′H-spiro[indole-3,1′-pyrrolo[3,4-c]pyrrole]-2,3′-dione], for which the “effect of treatment on tumors (in words)” value in the data set with SJSA-1 xenograft (14 doses of 12.5 mg/kg p.o., SJSA-1 xenograft) is on record as “complete eradication of tumors”. In addition, the results for the inhibition in vivo at 12.5 mg/kg with SJSA-1 xenograft (setting [4]) and in the data set with SJSA-1 xenograft (setting [5]) were 93.7% and 99.7%, respectively. Moreover, the “regrowth of lesions during follow-up” value with SJSA-1 xenograft (after 14 doses of 12.5 mg/kg p.o., follow-up to day 101) is given as “none of the lesions exhibited regrowth”. For the same compound, in data set [3], the IC50 is 0.05 µM. The Ki on p53-Mdm2 interaction came out at 2.5 nM.
